Literature values in US9206425B2, “Methods for treating Niemann-Pick type C disease” (Trustees of Dartmouth College, priority 2011, dated 2015).
Like-named read-outs stand apart in the source and are kept apart here. One block for each compound: values may come before it.

Assays:
ACAT1 [1] = biological target: T1, ACAT1 (Homo sapiens, UniProt P35610); conditions: Cho et al. 2003
T1 sequence (P35610 1-550): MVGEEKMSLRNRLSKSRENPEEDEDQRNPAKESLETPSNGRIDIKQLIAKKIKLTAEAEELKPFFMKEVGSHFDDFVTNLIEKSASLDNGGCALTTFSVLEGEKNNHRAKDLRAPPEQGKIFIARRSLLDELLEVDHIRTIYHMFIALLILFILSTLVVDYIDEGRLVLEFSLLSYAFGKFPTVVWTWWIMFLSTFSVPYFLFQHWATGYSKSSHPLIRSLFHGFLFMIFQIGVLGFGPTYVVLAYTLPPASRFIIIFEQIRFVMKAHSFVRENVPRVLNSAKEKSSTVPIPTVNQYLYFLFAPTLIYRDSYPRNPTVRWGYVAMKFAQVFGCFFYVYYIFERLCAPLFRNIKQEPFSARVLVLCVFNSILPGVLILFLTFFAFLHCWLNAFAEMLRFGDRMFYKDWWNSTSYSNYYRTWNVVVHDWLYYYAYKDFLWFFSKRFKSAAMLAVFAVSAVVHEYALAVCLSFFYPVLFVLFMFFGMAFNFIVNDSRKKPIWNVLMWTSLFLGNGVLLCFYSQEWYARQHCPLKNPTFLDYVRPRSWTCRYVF

NPC disease = conditions: humans, two-year study
ACAT1 [2] = biological target: T1, ACAT1; conditions: Lee et al. 2004
hACAT-2 = biological target: T2, hACAT-2 (Homo sapiens, UniProt O75908)
T2 sequence (O75908 1-522): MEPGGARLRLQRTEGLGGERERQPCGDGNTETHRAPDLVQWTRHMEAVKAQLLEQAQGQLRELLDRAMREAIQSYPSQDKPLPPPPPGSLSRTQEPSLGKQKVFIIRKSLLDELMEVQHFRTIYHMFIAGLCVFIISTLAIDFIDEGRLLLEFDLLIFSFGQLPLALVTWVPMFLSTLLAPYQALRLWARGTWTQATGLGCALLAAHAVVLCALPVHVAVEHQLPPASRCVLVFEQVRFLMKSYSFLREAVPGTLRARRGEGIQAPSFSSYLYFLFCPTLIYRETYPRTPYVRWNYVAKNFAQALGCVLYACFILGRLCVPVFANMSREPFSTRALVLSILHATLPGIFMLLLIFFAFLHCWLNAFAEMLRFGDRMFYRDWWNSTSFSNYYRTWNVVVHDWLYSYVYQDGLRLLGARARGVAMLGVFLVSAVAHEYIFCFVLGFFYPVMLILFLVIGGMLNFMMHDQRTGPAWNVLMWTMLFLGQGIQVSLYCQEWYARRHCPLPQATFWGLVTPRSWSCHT

human macrophages = conditions: in vitro
[3] = test system: coronary atherosclerosis / familial hypercholesterolemia
[4] = test system: mouse model for Alzheimer disease
ACAT1 and ACAT2 = conditions: Kitayama et al. 2006
[5] = continuous administration starting at PND 7
[6] = mouse model for Alzheimer disease

Compound: CC(O)COC[C@H]1O[C@@H]2O[C@H]3[C@H](O)[C@@H](O)[C@@H](O[C@H]4[C@H](O)[C@@H](O)[C@@H](O[C@H]5[C@H](O)[C@@H](O)[C@@H](O[C@H]6[C@H](O)[C@@H](O)[C@@H](O[C@H]7[C@H](O)[C@@H](O)[C@@H](O[C@H]8[C@H](O)[C@@H](O)[C@@H](O[C@H]1[C@H](O)[C@H]2O)O[C@@H]8COCC(C)O)O[C@@H]7COCC(C)O)O[C@@H]6COCC(C)O)O[C@@H]5COCC(C)O)O[C@@H]4COCC(C)O)O[C@@H]3COCC(C)O (stereo partly drawn) [HPCD, hydroxypropyl beta-cyclodextrin]
prolonged lifespan (NPC1^−/− mice; single injection at PND 7): 27%
cholesterol accumulation (NPC1^−/− mice; weekly treatment): normalize cholesterol accumulation
survival (NPC1^−/− mice; weekly treatment): prolong survival
crossing the blood brain barrier (NPC mice and NPC cats; mouse, in vivo): difficulty in crossing the blood brain barrier
macrophage activation in the lungs (NPC mice and NPC cats; treated NPC mice and NPC cats): increases in macrophage activation

Compound: CSc1cc(C)nc(SC)c1NC(=O)CN1CCN(CCSc2nc3ccccc3[nH]2)CC1 [K-604]
safety in vivo (laboratory animals): safe for use in vivo

greater activity on ACAT1 compared to ACAT-2 (ACAT1 [1]): 4 fold
Compound: CCOC(=O)OC(=O)OCC [diethyl pyrocarbonate]

Compound: CCCCN1C[C@H](O)[C@@H](O)[C@H](O)[C@H]1CO [Miglustat]
clinical onset (NPC1^−/− mice; [5]): significantly delayed
prolonged lifespan (NPC1^−/− mice; [5]): 49%
patients with stabilized NPC disease progression (NPC disease): 80 % of patients

IC50 (ACAT1 [2]): 43 µM
IC50 (hACAT-2; Lee et al. 2004): 124 µM
Compound: saucerneol B

Compound: CC(C)c1cc(C(C)C)c(CC(=O)NS(=O)(=O)Oc2c(C(C)C)cccc2C(C)C)c(C(C)C)c1 [Avasimibe]
safety (administered to rats, dogs, and humans): safe
foam cell formation in macrophages (human macrophages): reduces foam cell formation
progression of coronary atherosclerosis ([3]; humans, in combination with a statin drug): failed to demonstrate efficacy
activity in mouse model for Alzheimer's disease ([4]; 14.4 mg/kg/day): beneficial activity
amyloid plaque load [4, 6]: significant decreases
cognitive deficits [4, 6]: reduction in cognitive deficits

Compound: CCCCCCCCN1CCc2c(C)c(CC(=O)O)c(C)c(NC(=O)C(C)(C)C)c21 [Pactimibe]
efficacy as supplement to statin treatment ([3]; patients with familial hypercholesterolemia): lacked efficacy
potency on ACAT1 versus ACAT2 (ACAT1 and ACAT2): approximately equal potency

inhibition of hACAT-2 (hACAT-2; at 1 mM): 32%
Compound: COc1ccc([C@@H](O)[C@@H](C)Oc2ccc([C@H]3O[C@H](c4ccc(O[C@H](C)[C@H](O)c5ccc6c(c5)OCO6)c(OC)c4)[C@H](C)[C@H]3C)cc2OC)cc1OC [manassantin B]
